Source: PubChem BioAssay (NCI)
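Abbreviation: GI50, concentration required for 50% inhibition of growth. TGI: total growth inhibition.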

How the values were obtained:
Experiment in all cases: growth of human tumour cells (NCI), 384-well format
BT-549 breast = system: BT-549 breast
IGROV1 ovarian = system: IGROV1 ovarian
OVCAR-5 ovarian = system: OVCAR-5 ovarian
SK-MEL-2 melanoma = system: SK-MEL-2 melanoma
MDA-MB-468 breast = system: MDA-MB-468 breast
HCC-2998 colon = system: HCC-2998 colon
PC-3 prostate = system: PC-3 prostate
SR leukemia = system: SR leukemia
SK-MEL-28 melanoma = system: SK-MEL-28 melanoma
SK-OV-3 ovarian = system: SK-OV-3 ovarian
UACC-62 melanoma = system: UACC-62 melanoma
SW-620 colon = system: SW-620 colon
NCI-H322M lung = system: NCI-H322M lung
SN12C renal = system: SN12C renal
ACHN renal = system: ACHN renal
KM12 colon = system: KM12 colon
SF-268 CNS = system: SF-268 CNS
MDA-MB-435 melanoma = system: MDA-MB-435 melanoma
HL-60(TB) leukemia = system: HL-60(TB) leukemia
786-0 renal = system: 786-0 renal
NCI-H460 NSCLC = system: NCI-H460 NSCLC
NCI-H226 lung = system: NCI-H226 lung
MOLT-4 leukemia = system: MOLT-4 leukemia
A549 NSCLC = system: A549 NSCLC
COLO 205 colon = system: COLO 205 colon
OVCAR-3 ovarian = system: OVCAR-3 ovarian
NCI/ADR-RES ovarian = system: NCI/ADR-RES ovarian
HS 578T breast = system: HS 578T breast
HCT-15 colon = system: HCT-15 colon
MALME-3M melanoma = system: MALME-3M melanoma
RXF 393 renal = system: RXF 393 renal
MDA-MB-231 breast = system: MDA-MB-231 breast
U251 glioblastoma = system: U251 glioblastoma
SF-295 CNS = system: SF-295 CNS
SNB-75 CNS = system: SNB-75 CNS
NCI-H522 lung = system: NCI-H522 lung
CCRF-CEM leukemia = system: CCRF-CEM leukemia
EKVX NSCLC = system: EKVX NSCLC
OVCAR-8 ovarian = system: OVCAR-8 ovarian
HOP-62 NSCLC = system: HOP-62 NSCLC
NCI-H23 lung = system: NCI-H23 lung
M14 melanoma = system: M14 melanoma
SF-539 CNS = system: SF-539 CNS
HT29 colon = system: HT29 colon
RPMI-8226 leukemia = system: RPMI-8226 leukemia
A498 renal = system: A498 renal
SNB-19 CNS = system: SNB-19 CNS
TK-10 renal = system: TK-10 renal
T-47D breast = system: T-47D breast
OVCAR-4 ovarian = system: OVCAR-4 ovarian
UACC-257 melanoma = system: UACC-257 melanoma
DU-145 prostate = system: DU-145 prostate
HOP-92 NSCLC = system: HOP-92 NSCLC
SK-MEL-5 melanoma = system: SK-MEL-5 melanoma
MCF7 breast = system: MCF7 breast
CAKI-1 renal = system: CAKI-1 renal

## CC(=O)c1cc2c(o1)C(=O)c1ccccc1C2=O
BT-549 breast
  GI50: 141 nM
  TGI: 272 nM
IGROV1 ovarian
  GI50: 1230 nM
  TGI: 2490 nM
OVCAR-5 ovarian
  GI50: 149 nM
  TGI: 283 nM
SK-MEL-2 melanoma
  GI50: 269 nM
  TGI: 434 nM
MDA-MB-468 breast
  GI50: 220 nM
  TGI: 565 nM
HCC-2998 colon
  GI50: 160 nM
  TGI: 305 nM
PC-3 prostate
  GI50: 259 nM
  TGI: 1140 nM
SR leukemia
  GI50: 156 nM
  TGI: 295 nM
SK-MEL-28 melanoma
  GI50: 186 nM
  TGI: 336 nM
SK-OV-3 ovarian
  GI50: 1030 nM
  TGI: 2210 nM
UACC-62 melanoma
  GI50: 168 nM
  TGI: 306 nM
SW-620 colon
  GI50: 175 nM
  TGI: 367 nM
NCI-H322M lung
  GI50: 177 nM
  TGI: 317 nM
SN12C renal
  GI50: 165 nM
  TGI: 309 nM
ACHN renal
  GI50: 1310 nM
  TGI: 2590 nM
KM12 colon
  GI50: 299 nM
  TGI: 1200 nM
SF-268 CNS
  GI50: 234 nM
  TGI: 818 nM
MDA-MB-435 melanoma
  GI50: 156 nM
  TGI: 291 nM
HL-60(TB) leukemia
  GI50: 202 nM
  TGI: 347 nM
786-0 renal
  GI50: 707 nM
  TGI: 2040 nM
NCI-H460 NSCLC
  GI50: 172 nM
  TGI: 314 nM
NCI-H226 lung
  GI50: 166 nM
  TGI: 303 nM
MOLT-4 leukemia
  GI50: 215 nM
  TGI: 437 nM
A549 NSCLC
  GI50: 176 nM
  TGI: 317 nM
COLO 205 colon
  GI50: 190 nM
  TGI: 336 nM
OVCAR-3 ovarian
  GI50: 165 nM
  TGI: 315 nM
NCI/ADR-RES ovarian
  GI50: 215 nM
  TGI: 562 nM
HS 578T breast
  GI50: 179 nM
  TGI: 319 nM
HCT-15 colon
  GI50: 157 nM
  TGI: 294 nM
MALME-3M melanoma
  GI50: 148 nM
  TGI: 280 nM
RXF 393 renal
  GI50: 163 nM
  TGI: 326 nM
MDA-MB-231 breast
  GI50: 293 nM
  TGI: 1200 nM
U251 glioblastoma
  GI50: 194 nM
  TGI: 503 nM
SF-295 CNS
  GI50: 126 nM
  TGI: 255 nM
SNB-75 CNS
  GI50: 34.1 nM
  TGI: 101 nM
NCI-H522 lung
  GI50: 153 nM
  TGI: 289 nM
CCRF-CEM leukemia
  GI50: 357 nM
  TGI: 1090 nM
EKVX NSCLC
  GI50: 363 nM
  TGI: 1470 nM
OVCAR-8 ovarian
  GI50: 236 nM
  TGI: 669 nM
HOP-62 NSCLC
  GI50: 37.5 nM
  TGI: 133 nM
NCI-H23 lung
  GI50: 33.2 nM
  TGI: 138 nM
M14 melanoma
  GI50: 168 nM
  TGI: 306 nM
SF-539 CNS
  GI50: 159 nM
  TGI: 296 nM
HT29 colon
  GI50: 175 nM
  TGI: 316 nM
RPMI-8226 leukemia
  GI50: 132 nM
  TGI: 374 nM
A498 renal
  GI50: 178 nM
  TGI: 318 nM
SNB-19 CNS
  GI50: 175 nM
  TGI: 322 nM
TK-10 renal
  GI50: 1100 nM
  TGI: 2290 nM
T-47D breast
  GI50: 198 nM
  TGI: 439 nM
OVCAR-4 ovarian
  GI50: 156 nM
  TGI: 295 nM
UACC-257 melanoma
  GI50: 126 nM
  TGI: 254 nM
DU-145 prostate
  GI50: 137 nM
  TGI: 268 nM
HOP-92 NSCLC
  GI50: 363 nM
  TGI: 1390 nM
SK-MEL-5 melanoma
  GI50: 55.8 nM
  TGI: 178 nM
MCF7 breast
  GI50: 165 nM
  TGI: 305 nM
CAKI-1 renal
  GI50: 1030 nM
  TGI: 2210 nM
